Experimental data from US20180116993A1, “MODULATORS OF FARNESOID X RECEPTOR AND METHODS FOR THE USE THEREOF” (XIAMEN UNIVERSITY, priority 2015, published 2018).
Marks after values point to notes of the source that are not given here.

Experiments:
Format in all cases: in vivo, mouse
KK-Ay mice = test: Serum metabolic parameters in high-fat diet fed diabetic KK-Ay mice; settings: serum, 20 mg/kg for 14 days
Text: KK-Ay mice (KK/Upj-Ay/J) are animal models with moderate obese and diabetes with insulin resistance. KK-Ay mice develop hyperglycemia, hyperinsulinemia, glucose intolerance and obesity as well as fat accumulation in liver by eight weeks of age. Pancreatic islets are hypertrophied and the β-cells are degranulated. db/db mice (BKS.Cg-Dockr+/+ Lepr^db/Jnju) are animal models of type II diabetes. They have the phenotype of insulin resistance. These model mice were used to detect the functions of our compounds on metabolic diseases.
(§1) 8-10 weeks age mice were maintained as example 4, and fed with high-fat diet (Research Diets, D12492). Mice were i.p. injected with compounds once daily for 7, 10, 11 or 14 days as indicated in each table. After the last compounds injection, mice were fasted for 6 hours with free access to water, and then sacrificed. Part of each liver was fixed in 4% paraformaldehyde for H&E staining, and other liver tissues were stored in liquid nitrogen for enzyme activity measurement and gene expression analysis by RT-PCR. The serums were collected to measure metabolic parameters, including serum glucose, insulin, cholesterol, free fatty acid (FFA) and triglyceride levels. Serum glucose was analyzed using glucose oxidase method (Applygen, Beijing, China). The blood glucose in Table 11 was measured with Berenger blood glucose test strips (B/BRAUN, German) from blood by cutting mice tail after the 6th injection and following fast for 16 hours. Serum cholesterol and FFA were analyzed using Cholesterol Assay Kit and FFA Assay Kit (Bioassay Systems, USA; Nanjing Jiancheng Bioengineering Institute, China; FFA ELISA, R&D, USA), respectively. Serum triglyceride was analyzed using Triglyceride Assay Kit (Bioassay Systems, USA; WAKO Chemicals Inc., Japan; Applygen, Beijing, China). Liver triglyceride was analyzed using Tissue triglyceride assay kit (Applygen, Beijing, China). Serum insulin levels were measured by the Ultra Sensitive Mouse Insulin ELISA Kit (Crystal Chem. Inc., USA). RNA was isolated using Tissue RNA kit (Omega Bio-Tek, GA). The first strand cDNA were obtained by TAKARA reverse transcription kit. Real-time quantitative PCR were performed on a CFX96™ Real-Time PCR Detection System (Bio-Rad) using SYBR Premix Ex Taq™ (TAKARA). Relative mRNA expression levels were normalized to actin levels.

[1] = system: genes related to metabolism in liver of KK-Ay mice; test: Liver mRNA levels of metabolism genes in KK-Ay mice (RT-PCR); settings: 20 mg/kg for 14 days
Method: as §1
Triglyceride accumulation is due to the imbalance between triglyceride synthesis and clearance. One key gene controlling hepatic lipogenesis is SREBP-1c, whose up-regulation has been implicated in occurrence of hepatic steatosis. Liver-specific inhibition of ChREBP improves hepatic steatosis and insulin resistance in ob/ob mice (see e.g., Renaud (2006) Diabetes, 55(8):2159-70.). […] The gene expression pattern in KK-Ay mice liver further explained the underlying molecular mechanism for the reduction of lipid accumulation by the FXR-ligand compounds (Table 9).

[2] = system: collagen related genes in mice livers; test: Liver mRNA levels of collagen related genes in mice of Example 5 (RT-PCR); settings: 10 mg/kg; for Relative mRNA level of α-SMA: vehicle 1 ± 0.1; for Relative mRNA level of α2(I) collagen: vehicle 1.1 ± 0.1; for Relative mRNA level of α1(I) collagen: vehicle 1.1 ± 0.2
Text: NAFLD with excessive fat accumulation in liver will affect the blood and oxygen supplies to liver and the metabolism of liver organ, resulting in amounts of cell swelling, inflammatory infiltration and necrosis in liver. […] The levels of various collagen contents are higher in patients with liver cirrhosis. Masson's staining is a three-color staining protocol used in histology. It is widely used to study hepatic pathologies (cirrhosis). It's an authoritative and classic method to detect the existence and extend of accumulation of the collagen fiber. Sirius Red staining is also presented as a method for collagen determination. In this example, the Masson's staining and […] were performed to detect the collagen deposit in high fat diet fed db/db mice in Example 5. The Masson's staining kit (Nanjing Jiancheng Engineering Institute, China) was used for the staining of liver sections in Example 5. The Sirius red staining is performed as standard procedure. RT-PCR was used detect the expression of collagen and related genes such as α1(I) collagen, α2(I)collagen, α-SMA and MCP-1 in mice livers.

[3] = vehicle = 1, listed as feroline
[4] = vehicle = 1, listed as tschimganine

With C/C1=C\CCC(C)(O)/C=C/C(C(C)C)C(OC(=O)c2ccc(O)cc2)C1 (stereo not drawn) [Feroline] the “Cholesterol (mg/dl)” value (KK-Ay mice) was 116 ± 10^a mg/dl, the “FFA (μM)” value (KK-Ay mice) was 122 ± 30^b μM and the “Glucose (mg/dl)” value (KK-Ay mice) was 177 ± 16^a mg/dl. For the same compound, the “Triglyceride (mg/dl)” value (KK-Ay mice) was 136 ± 8^a mg/dl, the “mRNA levels in liver, CHREBP” value ([1]; vehicle = 1) was 0.4 ± 0.1^b and the “mRNA levels in liver, FDFT1” value ([1]; vehicle = 1) was 0.75 ± 0.1^a. The “mRNA levels in liver, G6PC” value ([1]; vehicle = 1) was 0.66 ± 0.07^a, the “mRNA levels in liver, GK” value ([1]; vehicle = 1) was 0.74 ± 0.11 and the “mRNA levels in liver, SREBP1c” value ([1]; vehicle = 1) was 0.3 ± 0.08^b. For the same compound, the “mRNA levels in liver, CHREBP” value [1, 3] was “decreased”, the “mRNA levels in liver, SREBP1c” value [1, 3] was “decreased” and the “Relative mRNA level of α-SMA” value [2] was 0.73 ± 0.06^a. The “Relative mRNA level of α2(I) collagen” value [2] was 0.6 ± 0.06^a and the “Relative mRNA level of α1(I) collagen” value [2] was 0.37 ± 0.1^a.
COc1cc(C(=O)O[C@H]2C[C@H]3CC[C@]2(C)C3(C)C)ccc1O [Tschimganine] was tested, and the “FFA (μM)” value (KK-Ay mice) was 151 ± 14^a μM, the “Glucose (mg/dl)” value (KK-Ay mice) was 123 ± 10^b mg/dl and the “Triglyceride (mg/dl)” value (KK-Ay mice) was 134 ± 15^a mg/dl. The “mRNA levels in liver, CHREBP” value ([1]; vehicle = 1) was 0.43 ± 0.08^a, the “mRNA levels in liver, FDFT1” value ([1]; vehicle = 1) was 0.77 ± 0.06^a and the “mRNA levels in liver, G6PC” value ([1]; vehicle = 1) was 0.59 ± 0.08^a. For the same compound, the “mRNA levels in liver, GK” value ([1]; vehicle = 1) was 0.54 ± 0.07^a, the “mRNA levels in liver, SREBP1c” value ([1]; vehicle = 1) was 0.38 ± 0.05^a and the “mRNA levels in liver, CHREBP” value [1, 4] was “decreased”. The “mRNA levels in liver, SREBP1c” value [1, 4] was “decreased”, the “Relative mRNA level of α-SMA” value [2] was 0.56 ± 0.12^a and the “Relative mRNA level of α1(I) collagen” value [2] was 0.6 ± 0.12^a. The “Relative mRNA level of MCP-1” value ([2]; vehicle 1.2 ± 0.2) was 0.62 ± 0.13^a.
For CC1(C)[C@@H]2CC[C@@]1(C)[C@@H](OC(=O)c1ccc(O)cc1)C2 [Tschimgine], the “Relative mRNA level of α-SMA” value [2] was 0.47 ± 0.1^a, the “Relative mRNA level of α2(I) collagen” value [2] was 0.75 ± 0.9^a and the “Relative mRNA level of α1(I) collagen” value [2] was 0.6 ± 0.13^a.
